Test results: patent US7241579B2, “Method of screening for GPR40 ligands” (SmithKline Beecham Corporation, priority 2000, dated 2007)
Read-outs that look alike come from different tables or passages of the source.

Tests used:
Format in all cases: cell-based
human GPR40 [1] = target: T1, human GPR40 (Homo sapiens, UniProt O14842); assay: FLIPR intracellular calcium response in HEK-293 cells transiently expressing GPR40; design: expressed in transfected cells; host or cells: HEK-293 (transient); conditions: GPR40 stimulation
T1 sequence (O14842 whole entry): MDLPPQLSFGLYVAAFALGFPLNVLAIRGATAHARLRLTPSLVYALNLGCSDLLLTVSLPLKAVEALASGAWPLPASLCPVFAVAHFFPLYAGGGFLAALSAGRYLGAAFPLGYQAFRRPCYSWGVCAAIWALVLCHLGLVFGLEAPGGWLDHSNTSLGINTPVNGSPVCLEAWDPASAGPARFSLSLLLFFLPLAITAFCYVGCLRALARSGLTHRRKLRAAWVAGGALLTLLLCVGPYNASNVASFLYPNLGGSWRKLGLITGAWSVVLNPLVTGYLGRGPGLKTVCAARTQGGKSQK
Source text: The Fluorometric Imaging Plate Reader (FLIPR™, Molecular Devices, UK) measures intracellular fluorescense in multi-well microplates. Where a GPCR couples to a calcium signalling pathway, the FLIPR system can be used with cells expressing the G-protein coupled receptor and containing calcium-sensitive fluorescent dyes, to monitor the intracellular calcium flux that occurs after activation of the G-coupled receptor. See, e.g., Kirk et al., J. Biomolecular Screening, 1:75 (1996).
The assays utilized a G-protein cocktail (+GPC) that contained chimeric and promiscuous G-proteins, as is known in the art of screening orphan G-protein coupled receptors.

human GPR40 [2] = target: T1, human GPR40; assay: CRE-luciferase reporter in CHO cells co-transfected with GPR40 expression vector; design: expressed in transfected cells; conditions: CHO cells containing GPR40 and CRE-Luc reporter, 4 hours of treatment
Protocol: (§1) Specific coupling was determined in mammalian cells using transient expression of a CRE-luciferase reporter for Gαs and stable cell-lines containing Gal4/ELK-1-luciferase reporter for Gαq/Gαi. Wild-type CHO cells were co-transfected with 3×-CRE-luciferase reporter vector and various amounts of an expression vector for GPR40. The control cells were transfected with reporter vector only. The reporter gene plasmids were produced in house but similar vectors can be purchased from Stratagene ([…]®). Cells were plated in a 24 well tissue culture plate at 1×10^4 cells/well in DMEM/F12 supplemented with 5% FBS. After 72 hours at 37° C., 5% CO2, the cells were transfected using the liposomal transfection reagent sold under the trademark LIPOFECTAME® and with the following combinations of plasmids: • A-3×-CRE-Luc • B-3×-CRE-Luc+CMV-GPR40 • C-3×-CRE-Luc+CMV-Gs coupled receptor The concentration of reporter plasmid for all wells was 0.15 μg/well. Concentrations of receptor plasmids were 0.5, 1.0, 5.0, 10.0 ng/well. After 24 hrs Cells containing 1 ng/well of receptor plasmid or no DNA control and CRE-Luc reporter were treated with fatty acid or the calcitonin which is known to act through a Gs-coupled receptor (Chakraborty, Science 251: 1078 (1991)) at concentrations indicated. […]

[3] = test system: CHO cells expressing CRE-luciferase with no receptor; assay: CRE-luciferase reporter in CHO cells containing reporter only (no receptor); conditions: 4 hours of treatment
Protocol: as §1

human GPR40 [4] = target: T1, human GPR40; assay: GAL4/Elk-1-luciferase reporter in CHO clones transfected with human GPR40, with and without pertussis toxin; design: expressed in transfected cells; conditions: GPR40 clones, 1 ug/ml pertussis toxin
Source text: (§2) To further test the coupling of GPR40 to Gαi/Gαq a Gal4/Elk-1 reporter was used. A stable, clonal reporter line was created by transfecting CHO cells with a plasmid that contains an expression construct for GAL4/Elk-1 and a GAL4-luciferase reporter construct. A similar reporter system can now be purchased from Stratagene (under the trademark […]®). An expression construct for human GPR40 which contains a G418 resistance construct was transfected into the host CHO GAL4/Elk-1 reporter cell line (10 ug plasmid DNA pCR3-GPR40) via electroporation. The cell lines were selected for with 500 ug/mL G418 until all cells in the control were dead and clones were then picked. The Gal4/Elk-1 reporter can be activated through Gq or Gi. To confirm coupling via Gi, cells were treated with pertussis toxin treatment which ADP-ribosylates Gαi preventing its interaction with receptors (Bokoch et al., J. Biol. Chem 258:2072 (1983)). Pertussis toxin has no known effect on Gαq.
(§3) Host cells and those transfected with the GPR40 construct were plated in a 96-well tissue culture plate at 2000 cells/well in DMEM/F12 supplemented with 5% FBS. After 48 hours at 37° C. at 5% CO2, the cells were placed in serum-free DMEM/F12 in the presence or absence of 1 ug/ml pertussis toxin. After 16 hours at 37° C., 5% CO2 the host cells were treated with: lysophosphatidic acid (oleoyl) (LPA) which couples through GαI to activate MAP kinase (Hordijk et al., J. Biol. Chem. 269: 645 (1994)); thrombin which couples through Gαi and Gαq (Hung et al., J. Biol. Chem. 267:20831 (1992)); or 5,8,11-Eicosatriynoic acid (a GPR40 ligand), at the concentrations indicated. The host cells containing the GPR40 construct were stimulated with or 5,8,11-Eicosatriynoic acid at the concentrations indicated. Controls for lysophosphatidic acid contained 0.5% DMSO; controls for […] contained 0.05% ethanol. Luciferase activity was assayed 4 hours after treatment using a luciferase reporter gene assay kit available under the trademark LUCLITE®, as per manufacturers instructions (Packard Bioscience).

[5] = test system: CHO cells containing GAL4/Elk1-luciferase reporter constructs; assay: GAL4/Elk-1-luciferase reporter in host CHO cells (reporter only), with and without pertussis toxin; conditions: 1 ug/ml pertussis toxin 16 hours
Source text: as §2, §3

[6] = FLIPR, first of up to 3 experiments, read-out: Mean pEC50 (converted)
[7] = FLIPR, second of up to 3 experiments, read-out: Mean pEC50 (converted)
[8] = FLIPR, third experiment, read-out: Mean pEC50 (converted)
[9] = Mean pEC50 of 3 expts, FLIPR, overall mean (n = 1 or 2 where stated)
[10] = FLIPR, Additional Fatty Acid Compounds, read-out: EC50 uM
[11] = FLIPR, Additional Fatty Acid Compounds, read-out: EC50
[12] = EC50 uM, FLIPR, Additional Fatty Acid Compounds
[13] = EC50 (M), FLIPR, Additional Fatty Acid Compounds
[14] = Mean pEC50, FLIPR, first of up to 3 experiments
[15] = Mean pEC50, FLIPR, second of up to 3 experiments

Compound | EC50 (human GPR40 [1]; [6]) [µM] | EC50 (human GPR40 [1]; [7]) [µM] | EC50 (human GPR40 [1]; [8]) [µM] | EC50 (human GPR40 [1]; [9]) [µM] | EC50 (human GPR40 [1]; [10]) [µM] | EC50 (human GPR40 [1]; [11]) [µM] | other results
CCCCCCCCCCCC(=O)O [Lauric acid] | 17.8 | 11.7 | 8.51 | 12 |  |  | 
CCCCCCCCCCC/C=C\C/C=C\CCCC(=O)O [Eicosa-5Z,8Z-dienoic acid] |  |  |  |  | 7.8 | 7.76 | 
CCCCC/C=C\C/C=C\CCCCCCCC(=O)O [Linoleic acid] |  |  |  | 18.6 |  |  | EC50 (human GPR40 [1]; [12]): 9.5 µM; EC50 (human GPR40 [1]; [13]): 9.54 µM; EC50 (human GPR40 [1]; [14]): 16.6 µM; EC50 (human GPR40 [1]; [15]): 20.9 µM
calcitonin |  |  |  |  |  |  | luciferase production (CRE-luciferase) (human GPR40 [2]): increase in luciferase production; luciferase production (CRE-luciferase) [3]: increase in luciferase production
CCCCCCCCCCCCCCC(=O)O [Pentadeconoic acid] | 10.7 | 4.37 | 6.17 | 6.61 |  |  | 
CC/C=C\C/C=C\C/C=C\CCCCCCCCCCCC(=O)O [Docosa-13Z,16Z,19Z-trienoic acid] |  |  |  |  | 6.8 | 6.76 | 
CCCCCC/C=C\CCCCCCCC(=O)O [Palmitoleic acid] | 15.1 | 15.5 | 11 | 13.8 |  |  | 
pertussis toxin |  |  |  |  |  |  | decrease of basal reporter activity following pertussis toxin treatment (human GPR40 [4]): up to 70%
CCCCCCC(=O)O [Heptanoic acid] | 46.8 | 60.3 |  | 52.5 |  |  | 
CCCCCCCCCCCCCCCCCCCCCC(=O)O [Behenic acid] |  | 49 |  | 50.1 |  |  | EC50 (human GPR40 [1]; [14]): 51.3 µM
CCCCCCCCCCC(=O)O [Undecanoic acid] | 25.1 | 21.9 | 14.8 | 20 |  |  | 
CCCCCCCCCCCCCCCCCCC(=O)O [Nonadecanoic acid] | 26.3 | 34.7 |  | 30.2 |  |  | 
CCCCC/C=C\C/C=C\CCCCCCCCCC(=O)O [Eicosa-11Z,14Z-dienoic acid] |  |  |  |  | 10.7 | 10.7 | 
CCCCCCCCCC(=O)O [Capric acid] | 18.2 | 11 | 14.5 | 14.1 |  |  | 
CCCCCCCC(=O)O [Caprylic acid] |  |  |  | 38 |  |  | EC50 (human GPR40 [1]; [14]): 56.2 µM; EC50 (human GPR40 [1]; [15]): 26.3 µM
CC/C=C\C/C=C\C/C=C\CCCCCCCCCC(=O)O [Eicosa-11Z,14Z,17Z-trienoic acid] |  |  |  |  | 11.2 | 11.2 | 
CCCCCCCCCCCCCCCCC(=O)O [Heptadecanoic acid] | 13.8 | 10.2 | 7.76 | 10.2 |  |  | 
CCCCCCCCCCCCCCCC(=O)O [Palmitic acid] | 8.32 | 3.09 | 5.01 | 5.01 |  |  | 
CCCCCCCCC(=O)O [Nonanoic acid] |  |  |  | 39.8 |  |  | EC50 (human GPR40 [1]; [14]): 69.2 µM; EC50 (human GPR40 [1]; [15]): 23.4 µM
thrombin |  |  |  |  |  |  | agonist-stimulated reporter activity after pertussis toxin treatment [5]: only partially attenuated
C#CCCCCCCCCCCCCCCCC(=O)O [17-Octadecynoic acid] |  |  |  |  | 7.6 | 7.58 | 
CC/C=C\C/C=C\C/C=C\C/C=C\C/C=C\CCCCCC(=O)O [Docosa-7Z,10Z,13Z,16Z,19Z-pentaenoic acid] |  |  |  |  | 4.7 | 4.68 | 
CCCCCCCCCCCCCCCCCC(=O)O [Stearic acid] | 20 | 16.6 | 14.1 | 16.6 |  |  | 
CCC=CCC=CCC=CCC=CCC=CC/C=C\CCC(=O)O [cis-4,7,10,13,16,19-Docosahexaenoic acid] | 6.61 | 2.95 | 3.98 | 4.27 | 1.6 | 1.62 | 
CCCCC/C=C\C/C=C\C/C=C\C/C=C\CCCC(=O)O [Arachidonic acid] | 18.2 | 12.9 | 7.24 | 12 | 9.1 | 9.12 | 
CCCCCCCC/C=C\CCCCCCCC(=O)OC[C@@H](O)COP(=O)(O)O [LPA, lysophosphatidic acid (oleoyl)] |  |  |  |  |  |  | agonist-stimulated reporter activity after pertussis toxin treatment [5]: completely abolished
CC/C=C\C/C=C\C/C=C\CCCCCCCC(=O)O [Linolenic acid] |  |  |  | 12.6 |  |  | EC50 (human GPR40 [1]; [12]): 5.5 µM; EC50 (human GPR40 [1]; [13]): 5.5 µM; EC50 (human GPR40 [1]; [14]): 11.7 µM; EC50 (human GPR40 [1]; [15]): 21.9 µM; EC50 (human GPR40 [1]; Mean pEC50, FLIPR, third experiment): 7.59 µM
CCCCCCCCCCCCCCCCCCCCC(=O)O [Heneicosanoic acid] | 35.5 | 29.5 |  | 32.4 |  |  | 
CC/C=C\C/C=C\C/C=C\C/C=C\C/C=C\CCCC(=O)O [Eicosa-5Z,8Z,11Z,14Z,17Z-pentaenoic acid] |  |  |  |  | 6.8 | 6.76 | 
CCCCC/C=C\C/C=C\C/C=C\CCCCCCC(=O)O [Dihomo-gamma-linolenic acid] |  |  |  |  | 7.2 | 7.24 | 
